Assays:
[1] = system: EcTolC; assay: microbe, parasite or virus in culture; assay type: cell-based; conditions: Escherichia coli, 18 h, LB medium, read-out: EcTolC %inh. At 50 μM
[2] = system: MtbH37Rv; assay type: cell-based, Mycobacterium tuberculosis
[3] = in vitro; conditions: human, HepG2 CC50, HepG2, 48 h, MTT
[4] = target: MtbIspE (Mycobacterium tuberculosis, UniProt P9WKG7); assay: target-directed dynamic combinatorial chemistry (tdDCC), amplification of acylhydrazones in protein-templated vs blank DCL (HPLC-MS/MS, UV 310 nm); assay type: binding
Method: In this study, we used MtbIspE as target protein and the reversible reaction of hydrazides and aldehydes to form dynamic combinatorial libraries (DCLs) of acylhydrazones. […] To accelerate the reaction at neutral pH, aniline was used as nucleophilic catalyst activating the aldehydes.[2],[4],[19] We analyzed the protein’s effect on the DCLs by comparing HPLC-MS/MS data of blank vs protein-templated (PT) experiments. The experiments spanned 3 days, with periodic sampling (every 2 h, followed by two samples per day after 8 h). The addition of NaOH to raise the pH and halt the reactions ensured the sample composition was preserved for analysis.[19] Templated experiments were conducted in duplicate, and the protein was denatured and removed prior to HPLC-MS/MS analysis.
The tdDCC hits and thus potential MtbIspE binders are amplified in the PT experiment compared to the blank experiment. The first step in the analysis of DCLs is the determination of the equilibrium since the amplification factors need to be calculated when the concentration of products is stable. To determine the evolution of the possible products, it is important to measure the characteristic UV absorbance of the acylhydrazones linker (310 nm) during the HPLC-MS/MS run. The resulting UV peaks are assigned to each product using the MS data (Figures S3–S6). The sum of all peak areas is normalized to 100% in order to obtain the respective relative peak area (RPA) for each product. The RPA values represent relative concentrations, determined at each time point of the blank experiment until the values stabilize. […] However, the rest of the compounds are out of range, making a visual inspection difficult. […] The other three libraries behaved in the same way, reaching equilibrium within 24 h and also maintained stable concentrations beyond (Figures S7–S9). To determine the tdDCC hits, we compared the RPAs of the PT experiments to the blanks at 24 h and set a threshold of at least 50% increase in compound formation. In total, 11 acylhydrazones passed our criteria, with amplification factors ranging from […] to 15.5, qualifying them for resynthesis and further evaluation (Figure 3). During the analysis of chromatograms, challenges arose concerning product identification. Some compound peaks were not neatly separated, forcing us to consider them in clusters, others presented two peaks, likely due to isomers, and were considered separately in our evaluation. Lastly, some compounds were detected by MS, but their respective UV signal interfered with the injection peak or was too low for integration (<1%), both in the blank and PT experiments. Consequently, we excluded these compounds from the analysis (Figure S3–S6).
To a well of a 24-well plate, containing Tris buffer (pH 7.0) were added hydrazides (300 μM each, in DMSO), aldehydes (100 μM each, in DMSO), aniline (20 mM, in DMSO), the protein MtbIspE (25 or 40 μM in Tris buffer at pH 7.0), and an additional amount of DMSO to reach a final concentration of 5% in the DCL with 0.5 mL of end-volume. The DCL was allowed to mix on a plate shaker at room temperature and was frequently monitored via LCMS-MS. For analysis, 30 μL of the corresponding library was mixed with 42 μL acetonitrile and 3 μL of NaOH (1 M), the mixture was centrifuged, and the supernatant was used for the analysis. PT experiments were run in duplicates and the protein was omitted for the blank experiments.
High-resolution mass (HRMS) of final products was determined by HPLC-MS/MS using a Thermo Scientific Q Exactive Focus Orbitrap LC -MS/MS system. All compounds were analyzed for purity by LCMS on Acquity UPLC-SQD system from Waters with a gradient elution of Water (Formic acid 0.1%)/Acetonitrile on an HSS - T3 column (2.1 x 50 mm, Waters), 1.8 µm, at 30°C, PDA detection between 240 -320 nm, and MS detection by simultaneous ES+/ES- ionization in a mass range of 150 -800. The flow is set to 0.9 ml/min, and the […]
gradient time is 1.5 min. […]

Chain of MtbIspE (P9WKG7 whole entry): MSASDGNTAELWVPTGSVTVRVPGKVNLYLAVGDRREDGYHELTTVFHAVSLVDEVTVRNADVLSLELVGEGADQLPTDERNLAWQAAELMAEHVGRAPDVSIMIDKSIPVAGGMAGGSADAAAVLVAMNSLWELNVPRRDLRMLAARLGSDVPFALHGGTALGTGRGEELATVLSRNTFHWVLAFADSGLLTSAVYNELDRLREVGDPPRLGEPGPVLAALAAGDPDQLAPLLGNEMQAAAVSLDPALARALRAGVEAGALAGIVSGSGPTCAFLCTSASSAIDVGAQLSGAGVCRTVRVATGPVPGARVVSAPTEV

SMILES	inhibition at 50 µM [1] [%]	MtbH37Rv MIC90 [2]	CC50 [3] [µM]	Amplification factors (DCL-4) ([4]; DCL-4, 24 h, 40 mol % MtbIspE)	Amplification factors (DCL-3) ([4]; DCL-3, 24 h, 40 mol % MtbIspE, I1 and K1 integrated as one cluster)	Amplification factor (DCL-2, control compound) ([4]; DCL-2, 40 mol % MtbIspE)
COc1ccc(-c2cc(/C=N/NC(=O)c3cc(CC(C)C)n[nH]3)no2)cc1 [D6, (E)-3-Isobutyl-N′-((5-(4-methoxyphenyl)isoxazol-3-yl)methylene)-1H-pyrazole-5-carbohydrazide]	39 ± 6	no inh. at max. sol.	> 50	1.0	–	–
O=C(N/N=C/c1cc(Cl)ccc1O)c1ccncc1 [L1, (E)-N′-(5-Chloro-2-hydroxybenzylidene)isonicotinohydrazide]	52 ± 3	no inh. at max. sol.	~50	–	4.1	–
O=C(N/N=C/c1ccc(C(F)(F)F)cc1)c1cccc(Cl)c1 [K4, (E)-3-Chloro-N′-(4-(trifluoromethyl)benzylidene)benzohydrazide]	38 ± 4	no inh. at max. sol.	> 50	–	–	0.0
